Test results from patent US11230525B2, “Organic sulfur compound, method for preparing same, and pharmaceutical composition for preventing or treating cancer or an inflammatory disease, containing same as active ingredient” (SOOKMYUNG WOMENS UNIVERSITY INDUSTRY-ACADEMIC COOPERATION …, priority 2016, dated 2022).

Legend:
[1] = tested on: PC-3 cells, human prostate cancer cells; experiment: Anticancer activity in prostate cancer xenograft model; format: in vivo, mice; conditions: 50 mg/kg (SAHA 100 mg/kg) once a day for 16 days, compared with the non-treated group
Method: Particularly, 9×10^6 PC-3 cells, human prostate cancer cells, were inoculated subcutaneously to the right side of female BALB/c nu/nu mice at 5 weeks of age (Nara Biotech, Seoul, Republic of Korea).
(§1) When the tumor size reached 40-60 mm^3, the mice were randomly grouped (4 mice per group), which were the non-treated group (10% dimethylacetamide, 10% tween 80 and 80% distilled water), the groups treated with the compounds of comparative examples 1 and 2 (Ajoene, 50 mg/kg), the groups treated with the compounds of examples 18 and 32 (50 mg/kg), and the group treated with the positive control SAHA (Vorinostat, 100 mg/kg). The treatment was performed once a day for 16 days in total. During the treatment, the tumor size was measured with a vernier caliper, followed by evaluation according to the following formula: length (mm)×width (mm)×height (mm)/2. The weights were measured regularly.
(§2) Upon completion of the treatment (16 days later), the mice were sacrificed and the tumor weights were measured. All the experiments were performed according to the experiment protocol approved by Institutional Animal care and Use Committee (IACUC), Korea Research Institute of Bioscience and Biotechnology (KRIBB).

[2] = tested on: breast cancer cell line (MDA-MB-231); experiment: Cancer proliferation inhibitory activity (SRB, GI50), MDA-MB-231; format: cell-based; conditions: Homo sapiens, 48 hours
Source text: (§3) Particularly, the cancer proliferation inhibitory activity of the compounds of comparative examples (Ajoene and the compounds isosteric to Ajoene wherein R1 is allyl or benzyl) and the compounds of examples of the present invention (the compounds not isosteric to Ajoene wherein R^1 is phenyl) was investigated in human cancer cell lines (renal cancer cell line (ACHN), breast cancer cell line (MDA-MB-231), colorectal cancer cell line (HCT-15), prostate cancer cell line (PC-3), gastric cancer cell line (NUGC-3) and lung cancer cell line (NCl-H23)).
(§4) At this time, the cancer cell lines (renal cancer cell line (ACHN), breast cancer cell line (MDA-MB-231), colorectal cancer cell line (HCT-15), prostate cancer cell line (PC-3), gastric cancer cell line (NUGC-3) and lung cancer cell line (NCl-H23)) above were purchased from American Type Culture Collection (Manassas, Va., USA). Cells were cultured in RPMI 1640 supplemented with 10% fetal bovine serum, which were maintained 37° C. under 5% CO2 wet atmosphere. The cells were distributed in a 96-well plate, which was not treated (treated only with 0.1% DMSO) or treated with the compounds of examples of the present (0.1 μM to 10 μM). 48 hours later, the cells were fixed in 50% trichloroacetic acid, followed by staining with 1% acetic acid containing 0.4% sulphorodamine B dissolved therein. The non-conjugated dye was removed by washing with 1% acetic acid, and the protein conjugated dye was extracted with 10 mM Tris base (pH 10.5). Then, OD540 was measured with VersaMax microplate reader (Molecular devices, Sunnyvale, Calif., USA). GI50 was calculated by using GraphPad Prism software (GraphPad Software, Inc., San Diego, Calif., USA).
(§5) Based on the results obtained in experimental example 1-1 above, the derivatives wherein R^1 is phenyl were additionally synthesized. The cancer proliferation inhibitory activity of the derivatives was evaluated by the same manner as described in experimental example 1-1.

[3] = tested on: lung cancer cell line (NCl-H23); experiment: Cancer proliferation inhibitory activity (SRB, GI50), NCI-H23; format: cell-based; conditions: Homo sapiens, 48 hours
Source text: as §3, §4, §5

[4] = tested on: prostate cancer cell line (PC-3); experiment: Cancer proliferation inhibitory activity (SRB, GI50), PC-3; format: cell-based; conditions: Homo sapiens, 48 hours
Source text: as §3, §4, §5

[5] = tested on: colorectal cancer cell line (HCT-15); experiment: Cancer proliferation inhibitory activity (SRB, GI50), HCT-15; format: cell-based; conditions: Homo sapiens, 48 hours
Source text: as §3, §4, §5

HDAC 6 = target: T1, HDAC 6 (Homo sapiens, UniProt Q9UBN7); experiment: HDAC enzyme fluorescence assay, HDAC 6; format: biochemical; conditions: recombinant HDAC enzyme, Boc-Lys(acetyl)-AMC
T1 sequence (Q9UBN7 1-1215): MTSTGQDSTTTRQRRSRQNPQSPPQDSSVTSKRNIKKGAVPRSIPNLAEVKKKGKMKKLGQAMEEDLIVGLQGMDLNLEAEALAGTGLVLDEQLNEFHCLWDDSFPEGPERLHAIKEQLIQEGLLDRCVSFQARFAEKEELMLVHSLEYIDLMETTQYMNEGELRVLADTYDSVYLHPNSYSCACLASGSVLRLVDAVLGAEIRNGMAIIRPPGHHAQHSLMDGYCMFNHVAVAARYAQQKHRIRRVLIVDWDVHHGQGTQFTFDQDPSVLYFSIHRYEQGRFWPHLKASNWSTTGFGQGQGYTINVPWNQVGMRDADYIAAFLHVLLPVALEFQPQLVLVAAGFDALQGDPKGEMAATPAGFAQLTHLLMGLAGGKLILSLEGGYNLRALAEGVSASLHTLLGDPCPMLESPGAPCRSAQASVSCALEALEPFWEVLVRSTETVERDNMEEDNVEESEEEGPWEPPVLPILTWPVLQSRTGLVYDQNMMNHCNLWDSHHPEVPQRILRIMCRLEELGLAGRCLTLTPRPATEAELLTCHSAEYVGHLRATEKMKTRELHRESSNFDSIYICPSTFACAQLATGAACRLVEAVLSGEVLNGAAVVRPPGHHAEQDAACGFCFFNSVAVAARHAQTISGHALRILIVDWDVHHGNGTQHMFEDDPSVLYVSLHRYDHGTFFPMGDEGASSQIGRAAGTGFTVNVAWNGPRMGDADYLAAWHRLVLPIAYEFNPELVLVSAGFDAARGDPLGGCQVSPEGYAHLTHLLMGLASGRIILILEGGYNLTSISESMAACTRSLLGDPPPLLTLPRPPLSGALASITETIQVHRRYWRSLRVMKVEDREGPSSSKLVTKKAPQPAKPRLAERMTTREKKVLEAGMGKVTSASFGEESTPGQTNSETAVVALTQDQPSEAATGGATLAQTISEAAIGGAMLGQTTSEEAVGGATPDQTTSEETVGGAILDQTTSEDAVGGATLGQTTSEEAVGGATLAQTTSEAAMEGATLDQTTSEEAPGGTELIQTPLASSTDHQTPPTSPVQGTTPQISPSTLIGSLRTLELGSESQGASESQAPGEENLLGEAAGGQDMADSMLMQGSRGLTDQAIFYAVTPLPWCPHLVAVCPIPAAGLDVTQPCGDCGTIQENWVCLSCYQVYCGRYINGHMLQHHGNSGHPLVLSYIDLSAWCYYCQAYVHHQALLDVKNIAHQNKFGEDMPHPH
Method: (§6) Particularly, HDAC enzyme analysis was performed based on a uniform fluorescence emission assay. First, the compounds of examples of the present invention or comparative example 1 were diluted at different concentrations, which were treated to the analysis buffer containing 25 mM HEPES (pH 8.0), 137 mM NaCl, 1 mM MgCl2 and 2.7 mM KCL, followed by culture of the recombinant HDAC enzyme. 10 minutes later, Boc-Lys(acetyl)-AMC, the fluorescence inducing substrate, was added thereto, followed by further culture at 37° C. At this time, the concentration of the fluorescence inducing substrate and the culture time were adjusted according to the isotypes of the HDAC enzyme. The reaction was terminated by treating trypsin at room temperature for 20 minutes. The fluorescence intensity was measured using a fluorescence analyzer at an excitation wavelength of 380 nm and an emission wavelength of 460 nm, respectively. The inhibition rate was calculated from the measured fluorescence intensity of each well with comparing to that of the control well. IC50 of the compound was calculated by analyzing the dose-reaction inhibition curve.

[6] = tested on: gastric cancer cell line (NUGC-3); experiment: Cancer proliferation inhibitory activity (SRB, GI50), NUGC-3; format: cell-based; conditions: Homo sapiens, 48 hours
Source text: as §3, §4, §5

HDAC 1 = HDAC 1 (Homo sapiens, UniProt Q13547); experiment: HDAC enzyme fluorescence assay, HDAC 1; format: biochemical; conditions: recombinant HDAC enzyme, Boc-Lys(acetyl)-AMC
Method: as §6

HDAC 8 = target: T2, HDAC 8 (Homo sapiens, UniProt Q9BY41); experiment: HDAC enzyme fluorescence assay, HDAC 8; format: biochemical; parameters: Inhibitory activity (%) HDAC 8: concentration or dose not given beside the values; conditions: for Inhibitory activity (%) HDAC 8: (HDAC inhibitory activity of example compound/HDAC inhibitory activity of SAHA) × 100
T2 sequence (Q9BY41 1-377): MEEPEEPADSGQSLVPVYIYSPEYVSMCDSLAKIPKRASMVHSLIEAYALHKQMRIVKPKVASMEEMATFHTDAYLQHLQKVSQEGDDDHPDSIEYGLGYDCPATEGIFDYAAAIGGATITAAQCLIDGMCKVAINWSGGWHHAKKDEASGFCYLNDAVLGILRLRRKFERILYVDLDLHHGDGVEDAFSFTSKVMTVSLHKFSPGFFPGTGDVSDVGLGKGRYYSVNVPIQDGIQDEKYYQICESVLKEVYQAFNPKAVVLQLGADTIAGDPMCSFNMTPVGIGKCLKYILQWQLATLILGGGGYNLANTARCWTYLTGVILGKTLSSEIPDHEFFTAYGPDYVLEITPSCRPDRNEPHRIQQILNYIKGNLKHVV
Method: as §6
The HDAC 8 inhibitory activity was presented as percentage of relative activity by the inhibitory activity of SAHA (Vorinostat) used as a reference compound.

[7] = tested on: renal cancer cell line (ACHN); experiment: Cancer proliferation inhibitory activity (SRB, GI50), ACHN; format: cell-based; conditions: Homo sapiens, 48 hours
Source text: as §3, §4, §5

[8] = Body weight of mice in prostate cancer xenograft model; format: in vivo; conditions: 50 mg/kg (SAHA 100 mg/kg) once a day for 16 days
Method: as §1, §2

Sequence of HDAC 1 (Q13547 whole entry, species assumed): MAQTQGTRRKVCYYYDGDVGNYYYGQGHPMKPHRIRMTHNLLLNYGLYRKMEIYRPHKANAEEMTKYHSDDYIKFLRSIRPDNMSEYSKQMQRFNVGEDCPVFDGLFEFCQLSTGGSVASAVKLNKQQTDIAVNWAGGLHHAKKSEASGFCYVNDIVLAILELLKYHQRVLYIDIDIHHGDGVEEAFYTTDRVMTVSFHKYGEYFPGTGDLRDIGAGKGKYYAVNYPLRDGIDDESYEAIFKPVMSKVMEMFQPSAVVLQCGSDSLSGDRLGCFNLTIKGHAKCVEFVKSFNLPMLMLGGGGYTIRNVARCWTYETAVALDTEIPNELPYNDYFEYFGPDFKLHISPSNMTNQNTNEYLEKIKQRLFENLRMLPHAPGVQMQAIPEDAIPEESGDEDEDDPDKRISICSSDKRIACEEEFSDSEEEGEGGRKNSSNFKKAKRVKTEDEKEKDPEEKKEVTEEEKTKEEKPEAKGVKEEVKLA

SMILES | tumor size / cancer proliferation (FIGS. 2, 3) [1] | GI50 [2] [µM] | GI50 [3] [µM] | GI50 [4] [µM] | GI50 [5] [µM] | IC50 (HDAC 6) [µM] | GI50 [6] [µM] | IC50 (HDAC 1) [nM] | Inhibitory activity (%) HDAC 8 (HDAC 8) [%] | IC50 (HDAC 8; recombinant HDAC enzyme, Boc-Lys(acetyl)-AMC, read-out: IC50 HDAC 8) [nM] | GI50 [7] [µM] | changes in weight of mice / visible toxicity (FIG. 1) [8]
O=C(CCCCCCC(=O)Nc1ccccc1)NO [SAHA, reference compound] | cancer proliferation was inhibited |  |  |  |  |  |  |  |  |  |  | 
[O-][S+](C/C=C\SSCc1ccccc1)c1ccccc1 (stereo not shown) [Example 6, (Z)-1-benzyl-2-(3-(phenylsulfinyl)prop-1-enyl)disulfane] |  | 3.96 | 4.91 | 5.35 | 6.48 | 49.1 | 3.25 | 3890 | 129.1 | 43 | 5.42 | 
C=CCSS/C=C\C[S+]([O-])CC=C (stereo not shown) [Comparative Example 2, Z-Ajoene, reference compound] | cancer proliferation was inhibited | > 10 | > 10 | > 10 | > 10 |  | > 10 |  | 52.5 |  | > 10 | only normal weight increases were observed
C=CCSS/C=C/C[S+]([O-])CC=C (stereo not shown) [Comparative Example 1, E-Ajoene, reference compound] | cancer proliferation was inhibited |  |  |  |  |  |  |  | 73.4 |  |  | only normal weight increases were observed
COc1cccc([S+]([O-])C/C=C\SSCc2ccc(Cl)cc2)c1 (stereo not shown) [Example 24, (Z)-1-(4-chlorobenzyl)-2-(3-(3-methoxyphenylsulfinyl)prop-1-enyl)disulfane] |  | 3.57 | 5.27 | 5.97 | 3.65 |  | 5.8 | 1270 | 140.4 |  | 5.82 | 
